In this assay the target is T1, BRD4 (Homo sapiens, UniProt O60885).
T1 construct: Mean 488 intensity of BRD4 quantitated in nuclear region; endogenous in cells; host or cells: EoL-1 eosinophilic leukemia cells
As to the kind of experiment: BRD4 degradation assay in EOL1 cells (immunofluorescence imaging). The format is cell-based. The conditions noted are these: EoL-1 eosinophilic leukemia cells, 4 hours treatment, nuclear BRD4 immunofluorescence. The procedure: BRD4 Degradation Assay in EOL1 Cells
EoL-1 eosinophilic leukemia cells were seeded on day 1 at a density of 45,000 cells per well in Corning PureCoat Amine Microplates, (Corning #354719) in 45 μL/well of assay media (RPMI, 10% FBS, containing L-glutamine). After cells attached to cell plate, compounds were serially diluted ⅓ in dimethylsulfoxide (DMSO) to create 20-point dilutions across a 384 well v-bottom polypropylene microplate (Greiner #781091). 2 μL of each sample from the serial dilution was transferred to 98 μL of assay media as an intermediate dilution. 5 μL of each well of the intermediate dilution was added to 45 μL of cell plate. Columns 1, 2, 23 and 24 were treated with only 0.2% final concentration of DMSO for data normalization as “neutral controls”. After compound treatment, cell plates were stored in a 37° C. incubator for 4 hours. After 4 hours cells were fixed in 3.7% w/v final concentration of paraformaldehyde by addition of 15 μL of 16% w/v paraformaldehyde (Electron Microscopy Sciences #15710-S) directly to the 50 μL media and compound in the cell plate. Cell plate was incubated at RT for 20 minutes. Well contents were aspirated and washed with 100 μL/well PBS 3 times. 50 ul/well of phosphate Buffered Saline (PBS) (pH 7.5) containing 0.5% w/v bovine serum albumen, 0.5% w/v Triton X-100 (Block/Permeabilization Buffer) was added to each well. Samples were incubated for 20 minutes. Well contents were aspirated and washed 3 times with 100 μL/well of PBS. PBS was aspirated from the well and 50 μL per well of EoL-1 Block Buffer (PBS containing 10% Normal Goat Serum (AbCam #ab7481)) was added to each well. Plates were incubated at room temperature for 30 minutes. Block buffer was decanted from the wells. Immunofluorescence staining of BRD4 was carried out by diluting mAB Anti-BRD4 [EPR5150] antibody (Abcam 128874) 1:500 into Antibody Dilution Buffer (PBS, 2% Normal Goat Serum). 25 μL per well of BRD4 antibody diluted in buffer was added and incubated overnight at 4° C.
On day-2 samples were washed 3 times with 100 μL/well of PBS. 25 μL/well of secondary antibody solution (Goat Anti-Rabbit IgG, DyLight 488 Conjugated Highly Cross-adsorbed Thermo Fisher #35553) and Hoechst 33342 1 μg/ml diluted in Antibody Dilution Buffer) were dispensed into each well. Hoechst 33342 only was added to bottom 3 columns for data normalization as “inhibitor controls”. Samples were incubated for 2 hours at room temperature. Samples were washed 3 times with 100 μL PBS. Quantitative fluorescence imaging of BRD4 was carried out using an Opera Phenix High-Content Screening System. Fluorescent images of the samples were captured using 488 nm and 405 nm channels. Hoechst channel was used to identify nuclear region. Mean 488 intensity of BRD4 quantitated in nuclear region. Data analysis was carried out using Genedata Screener, with DMSO and no primary antibody control treated samples being used to define the 0% and 100% changes in BRD4. The dose-response log(inhibitor) vs. response used to define the inflexion point of curve (DC50) and the plateau of the maximal effect.
The individual topological polar surface area (TPSA) and cLogP values were calculated using Chemdraw v. 15.1 (PerkinElmer). Half life of the ternary VHL/BD1 and VHL/BD2 complexes, DC50 of BRD4 in EOL1 cells, topological polar surface area of a molecule (TPSA) and c log P (lipophilicity) for compounds described herein are provided in Table 3.

Starred links: 1 amine or outer side, 2 acyl side, 3 side chain; linkers in the order of their positions; H or OH if unused. Positions of bridges follow the written chain, without caps; N, C: chain ends. Non-standard residues stand in square brackets, D forms with d. Residues, ends and D or L forms follow the SMILES beside them. *: point of attachment. JQ1acid = Cc1sc2c(c1C)C(c1ccc(Cl)cc1)=N[C@@H](CC(=O)*)c1nnc(C)n1-2; dPhg(4-(4-Me-thiazol-5-yl)) = Cc1ncsc1-c1ccc([C@@H](N)C(=O)O)cc1; Phg(4-(4-Me-thiazol-5-yl)) = Cc1ncsc1-c1ccc([C@H](N)C(=O)O)cc1; dDap(Me) = CN(C[C@@H](N[*:1])C(=O)[*:2])[*:3]; dBip = N[C@H](Cc1ccc(-c2ccccc2)cc1)C(=O)O; NHCH2CH2SCH2CO = O=C(CSCCN[*:1])[*:2]; cisHyp = O=C(O)[C@@H]1C[C@H](O)CN1; Hyp = O=C(O)[C@@H]1C[C@@H](O)CN1; d(β3hK) = NCCCC[C@@H](N)CC(=O)O; d4Pal = N[C@H](Cc1ccncc1)C(=O)O; Tle = CC(C)(C)[C@H](N)C(=O)O; dDap = NC[C@@H](N)C(=O)O; PEG1 = NCCOCCC(=O)O; Ahx = NCCCCCC(=O)O; AEA = NCCOCC(=O)O

Take `Cc1ncsc1-c1ccc([C@H]2NC(=O)[C@@H]3C[C@H](O)CN3C(=O)[C@H](C(C)(C)C)NC(=O)CSC[C@H](C(N)=O)NC(=O)[C@@H](CNC(=O)C[C@@H]3N=C(c4ccc(Cl)cc4)c4c(sc(C)c4C)-n4c(C)nnc43)NC(=O)CNC2=O)cc1` [Compound 27] ({CH2CO}-[Tle][cisHyp][dPhg(4-(4-Me-thiazol-5-yl))]G[dDap](JQ1acid)[dC]-NH2; thioether N-6): the DC50 (commonly the midpoint of the concentration-degradation curve) is over 20000 nM.
For the molecule `Cc1ncsc1-c1ccc([C@H]2NC(=O)[C@@H]3C[C@@H](O)CN3C(=O)[C@H](C(C)(C)C)NC(=O)CSC[C@@H](C(N)=O)NC(=O)[C@@H](CNC(=O)C[C@@H]3N=C(c4ccc(Cl)cc4)c4c(sc(C)c4C)-n4c(C)nnc43)NC(=O)CNC2=O)cc1` [Compound 28] ({CH2CO}-[Tle][Hyp][dPhg(4-(4-Me-thiazol-5-yl))]G[dDap](JQ1acid)C-NH2; thioether N-6), the DC50 is over 20000 nM.
The result for `Cc1ncsc1-c1ccc([C@H]2NC(=O)[C@@H]3C[C@@H](O)CN3C(=O)[C@H](C(C)(C)C)NC(=O)CSC[C@H](C(N)=O)NC(=O)[C@@H](CN(C)C(=O)C[C@@H]3N=C(c4ccc(Cl)cc4)c4c(sc(C)c4C)-n4c(C)nnc43)NC(=O)CNC2=O)cc1` [Compound 29] ({CH2CO}-[Tle][Hyp][dPhg(4-(4-Me-thiazol-5-yl))]G[dDap(Me)](JQ1acid)[dC]-NH2; thioether N-6) reads under 20000 nM.
With `Cc1ncsc1-c1ccc([C@@H]2NC(=O)[C@@H]3C[C@@H](O)CN3C(=O)[C@H](C(C)(C)C)NC(=O)CSC[C@H](C(N)=O)NC(=O)[C@@H](CNC(=O)C[C@@H]3N=C(c4ccc(Cl)cc4)c4c(sc(C)c4C)-n4c(C)nnc43)NC(=O)[C@@H](C)NC2=O)cc1` [Compound 31] ({CH2CO}-[Tle][Hyp][Phg(4-(4-Me-thiazol-5-yl))][dA][dDap](JQ1acid)[dC]-NH2; thioether N-6), the DC50 is over 20000 nM.
`Cc1ncsc1-c1ccc([C@H]2NC(=O)[C@@H]3C[C@@H](O)CN3C(=O)[C@H](C(C)(C)C)NC(=O)CCOCCNC(=O)[C@@H](CNC(=O)C[C@@H]3N=C(c4ccc(Cl)cc4)c4c(sc(C)c4C)-n4c(C)nnc43)NC(=O)CNC2=O)cc1` [Compound 32] (cyclo(G[dDap](JQ1acid)[PEG1][Tle][Hyp][dPhg(4-(4-Me-thiazol-5-yl))])) gave a DC50 of over 20000 nM.
Consider `Cc1ncsc1-c1ccc([C@H]2NC(=O)[C@@H]3C[C@@H](O)CN3C(=O)[C@H](C(C)(C)C)NC(=O)CNC(=O)[C@H](C)NC(=O)[C@@H](CNC(=O)C[C@@H]3N=C(c4ccc(Cl)cc4)c4c(sc(C)c4C)-n4c(C)nnc43)NC(=O)CNC2=O)cc1` [Compound 33] (cyclo(AG[Tle][Hyp][dPhg(4-(4-Me-thiazol-5-yl))]G[dDap](JQ1acid))), for which the DC50 is under 1000 nM.
In the case of `Cc1ncsc1-c1ccc([C@@H]2NC(=O)[C@@H]3C[C@@H](O)CN3C(=O)[C@H](C(C)(C)C)NC(=O)COCCNC(=O)[C@@H](CNC(=O)C[C@@H]3N=C(c4ccc(Cl)cc4)c4c(sc(C)c4C)-n4c(C)nnc43)NC(=O)[C@H](C)NC2=O)cc1` [Compound 35] (cyclo(A[dDap](JQ1acid)[AEA][Tle][Hyp][Phg(4-(4-Me-thiazol-5-yl))])), the DC50 was over 20000 nM.
With `Cc1ncsc1-c1ccc([C@H]2NC(=O)[C@@H]3C[C@@H](O)CN3C(=O)[C@H](C(C)(C)C)NC(=O)CNC(=O)C[C@@H](CCCCNC(=O)C[C@@H]3N=C(c4ccc(Cl)cc4)c4c(sc(C)c4C)-n4c(C)nnc43)NC(=O)CNC2=O)cc1` [Compound 36] (cyclo(G[Tle][Hyp][dPhg(4-(4-Me-thiazol-5-yl))]G[d(β3hK)](JQ1acid))) the figure was over 20000 nM; with `Cc1ncsc1-c1ccc([C@@H]2NC(=O)[C@@H]3C[C@@H](O)CN3C(=O)[C@H](C(C)(C)C)NC(=O)CNC(=O)C[C@@H](CCCCNC(=O)C[C@@H]3N=C(c4ccc(Cl)cc4)c4c(sc(C)c4C)-n4c(C)nnc43)NC(=O)CNC2=O)cc1` [Compound 37] (cyclo(G[Tle][Hyp][Phg(4-(4-Me-thiazol-5-yl))]G[d(β3hK)](JQ1acid))), over 20000 nM.
With `Cc1ncsc1-c1ccc([C@H]2NC(=O)[C@@H]3C[C@@H](O)CN3C(=O)[C@H](C(C)(C)C)NC(=O)CCCCCNC(=O)[C@@H](CNC(=O)C[C@@H]3N=C(c4ccc(Cl)cc4)c4c(sc(C)c4C)-n4c(C)nnc43)NC(=O)CNC2=O)cc1` [Compound 38] (cyclo([Ahx][Tle][Hyp][dPhg(4-(4-Me-thiazol-5-yl))]G[dDap](JQ1acid))) the figure was under 1000 nM; with `Cc1ncsc1-c1ccc([C@@H]2NC(=O)[C@@H]3C[C@@H](O)CN3C(=O)[C@H](C(C)(C)C)NC(=O)CCCCCNC(=O)[C@@H](CNC(=O)C[C@@H]3N=C(c4ccc(Cl)cc4)c4c(sc(C)c4C)-n4c(C)nnc43)NC(=O)CNC2=O)cc1` [Compound 39] (cyclo([Ahx][Tle][Hyp][Phg(4-(4-Me-thiazol-5-yl))]G[dDap](JQ1acid))), under 1000 nM.
In the case of `Cc1sc2c(c1C)C(c1ccc(Cl)cc1)=N[C@@H](CC(=O)NC[C@H]1NC(=O)CNC(=O)[C@@H](Cc3ccc(-c4ccccc4)cc3)NC(=O)[C@@H]3C[C@@H](O)CN3C(=O)[C@H](C(C)(C)C)NC(=O)COCCNC1=O)c1nnc(C)n1-2` [Compound 40] (cyclo([AEA][Tle][Hyp][dBip]G[dDap](JQ1acid))), the DC50 was under 50 nM.
`Cc1sc2c(c1C)C(c1ccc(Cl)cc1)=N[C@@H](CC(=O)NC[C@H]1NC(=O)[C@@H](C)NC(=O)[C@@H](Cc3ccc(-c4ccccc4)cc3)NC(=O)[C@@H]3C[C@@H](O)CN3C(=O)[C@H](C(C)(C)C)NC(=O)COCCNC1=O)c1nnc(C)n1-2` [Compound 41] (cyclo([AEA][Tle][Hyp][dBip][dA][dDap](JQ1acid))) displayed a DC50 of under 50 nM.
The molecule `Cc1sc2c(c1C)C(c1ccc(Cl)cc1)=N[C@@H](CC(=O)NC[C@H]1NC(=O)[C@@H](C(C)C)NC(=O)[C@@H](Cc3ccc(-c4ccccc4)cc3)NC(=O)[C@@H]3C[C@@H](O)CN3C(=O)[C@H](C(C)(C)C)NC(=O)COCCNC1=O)c1nnc(C)n1-2` [Compound 42] (cyclo([AEA][Tle][Hyp][dBip][dV][dDap](JQ1acid))) registered a DC50 of under 50 nM.
As to `Cc1sc2c(c1C)C(c1ccc(Cl)cc1)=N[C@@H](CC(=O)NC[C@H]1NC(=O)[C@@H](Cc3ccncc3)NC(=O)[C@@H](Cc3ccc(-c4ccccc4)cc3)NC(=O)[C@@H]3C[C@@H](O)CN3C(=O)[C@H](C(C)(C)C)NC(=O)COCCNC1=O)c1nnc(C)n1-2` [Compound 43] (cyclo([AEA][Tle][Hyp][dBip][d4Pal][dDap](JQ1acid))), the DC50 was under 50 nM.
In turn, `Cc1sc2c(c1C)C(c1ccc(Cl)cc1)=N[C@@H](CC(=O)NC[C@H]1NC(=O)[C@@H](Cc3ccccc3)NC(=O)[C@@H](Cc3ccc(-c4ccccc4)cc3)NC(=O)[C@@H]3C[C@@H](O)CN3C(=O)[C@H](C(C)(C)C)NC(=O)COCCNC1=O)c1nnc(C)n1-2` [Compound 44] (cyclo([AEA][Tle][Hyp][dBip][dF][dDap](JQ1acid))) showed a 50% degradation concentration (DC50) of under 50 nM.
Regarding `Cc1sc2c(c1C)C(c1ccc(Cl)cc1)=N[C@@H](CC(=O)NC[C@H]1NC(=O)[C@@H](Cc3ccc(-c4ccccc4)cc3)NC(=O)[C@@H](Cc3ccc(-c4ccccc4)cc3)NC(=O)[C@@H]3C[C@@H](O)CN3C(=O)[C@H](C(C)(C)C)NC(=O)COCCNC1=O)c1nnc(C)n1-2` [Compound 45] (cyclo([AEA][Tle][Hyp][dBip][dBip][dDap](JQ1acid))), the DC50 was under 1000 nM.
With `Cc1ncsc1-c1ccc([C@H]2NC(=O)[C@@H]3C[C@@H](O)CN3C(=O)[C@H](C(C)(C)C)NC(=O)CSCCNC(=O)[C@@H](CNC(=O)C[C@@H]3N=C(c4ccc(Cl)cc4)c4c(sc(C)c4C)-n4c(C)nnc43)NC(=O)CNC2=O)cc1` [Compound 46] (cyclo(G[dDap](JQ1acid)[NHCH2CH2SCH2CO][Tle][Hyp][dPhg(4-(4-Me-thiazol-5-yl))])) the figure was under 1000 nM.

Values taken from patent US12187816B2, “Macrocyclic compounds and methods of use thereof” (Genentech, Inc., priority 2020, dated 2025).
